Source: paper PMC6073313, “Comparison of the Anion Inhibition Profiles of the α-CA Isoforms (SpiCA1, SpiCA2 and SpiCA3) from the Scleractinian Coral Stylophora pistillata” (International Journal of Molecular Sciences, 2018)

Biological target: T1, SpiCA3 (Stylophora pistillata, UniProt A0A1B0Y357)
T1 construct: gene CA3
T1 sequence (A0A1B0Y357 1-258): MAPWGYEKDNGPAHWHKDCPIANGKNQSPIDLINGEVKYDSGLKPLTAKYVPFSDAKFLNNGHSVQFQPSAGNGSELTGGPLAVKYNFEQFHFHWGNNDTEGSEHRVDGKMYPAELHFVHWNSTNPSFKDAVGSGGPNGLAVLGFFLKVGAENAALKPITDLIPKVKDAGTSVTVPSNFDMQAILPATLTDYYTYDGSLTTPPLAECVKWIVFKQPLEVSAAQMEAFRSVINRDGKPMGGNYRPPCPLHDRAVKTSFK
Test: stopped-flow CO2 hydration, phenol red, Cheng-Prusoff
Format: biochemical
Details: not given

`Cl` [Cl^−] and `O=C(O)O` [HCO3^−] are within 1.5-fold of each other in Ki: 0.51 mM for the first, 0.4 mM for the second.

Compared with `S` [HS^−], `I` [I^−] is 1.6-fold higher in Ki: 0.34 mM for the first, 0.56 mM for the second.

Compared with `[N-]=[N+]=[N-]` [N3^−], `O=NO` [NO2^−] is 5.6-fold higher in Ki: 0.08 mM for the first, 0.45 mM for the second.

Compared with `OB(O)c1ccccc1` [Ph-B(OH)2], `O=S(=O)(O)C(F)(F)F` [Triflate] is lower in Ki: greater than 100 mM for the first, 0.29 mM for the second. The second binds more tightly here.

Work on `N#C[SeH]` [SeCN^−] yielded a Ki of 0.15 mM.

Same assay, conditions: read-out: KI [mM] ^# / SpiCA3 ^c

Going from `S=C(S)S` [CS3^2^−] to `CCN(CC)C(=S)S` [Et2NCS2^−], the Ki falls from 0.47 mM to 0.044 mM (11-fold).

Going from `NS(N)(=O)=O` [H2NSO2NH2] to `NS(=O)(=O)O` [H2NSO3H], the Ki rises from 0.0007 mM to greater than 100 mM. The first binds more tightly here.
